In US20250332173A1, “COMPOUNDS AND METHODS FOR MODULATING NUCLEIC ACID SPLICING” (REMIX THERAPEUTICS INC., priority 2021, published 2025) one finds IC50 data, which are given here for 19 compounds.

Structures are written as SMILES. A value given as a limit tells only on which side of the number the result lay.

The subject of this assay is Target C. As to the kind of experiment: HiBiT protein abundance assay, Target C (Promega Nano-Glo HiBiT Lytic Detection System, knock-in K562 cell line). The assay is classed as cell-based, human. The following applies: Homo sapiens, K562, 24 h, HiBiT K562 cell line, 24 hours, top dose 10 μM; read-out: Effect on protein abundance, Target C (IC50 category). Summed up: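 Knock-in K562 cells carrying HiBiT-tagged Target C, 10,000 per well, treated 24 h at 37 °C with 10-point threefold dilutions (top 10 μM final, ≤0.25% DMSO). Lytic HiBiT luminescence read; response normalised to unmodified K562 and DMSO controls, four-parameter fit interpolated at 50% for IC50.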
For the compound `Cc1cn2nc(-c3ccc4c(=O)n(C5C[C@@H](C)N[C@H](C)C5)ncc4n3)cc(C)c2n1` (stereo in doubt) [Compound 1537, 2-(2,8-dimethylimidazo[1,2-b]pyridazin-6-yl)-6-[(2R,6R)-2,6-dimethyl-4-piperidyl]pyrido[2,3-d]pyridazin-5-one], the IC50 is 0.1 to 1 µM. To `Cc1cn2nc(-c3ccc4c(=O)n([C@H]5CC(C)N[C@@H](C)C5)ncc4n3)cc(C)c2n1` (stereo in doubt) [Compound 1538, 2-(2,8-dimethylimidazo[1,2-b]pyridazin-6-yl)-6-[(2S,6S)-2,6-dimethyl-4-piperidyl]pyrido[2,3-d]pyridazin-5-one] belongs 0.1 to 1 µM; to `Cc1cn2cc(-c3ccc4c(=O)n(C5CCNCC5)cnc4c3)cc(F)c2n1` [Compound 205], 0.1 to 1 µM; to `Cn1cc2cc(-c3ccc4c(=O)n(C5CCNCC5)cnc4c3)cc(F)c2n1` [Compound 206], 0.1 to 1 µM. To `Cc1cn2cc(-c3ccc4c(=O)n(C5CCN(C)CC5)cnc4c3)cc(F)c2n1` [Compound 207] belongs 1 to 10 µM; to `CN1CCC(n2cnc3cc(-c4ccc5nn(C)cc5c4)ccc3c2=O)CC1` [Compound 208], greater than 10 µM; to `CN1CCC(n2cnc3cc(-c4cc(F)c5nn(C)cc5c4)ccc3c2=O)CC1` [Compound 209], greater than 10 µM. With `Cc1cn2cc(-c3ccc4c(=O)n(C5CCNCC5)cnc4c3F)cc(F)c2n1` [Compound 210], the 50% inhibitory concentration (IC50) was in the range of 1 to 10 µM. As for `Cc1nc2c(F)cc(-c3ccc4c(c3)CCN(C3CCNCC3)C4=O)cc2o1` [Compound 215], the IC50 fell in the range of 1 to 10 µM. To `Cc1cn2cc(-c3ccc4c(c3)CCN(C3CCNCC3)C4=O)cc(Cl)c2n1` [Compound 216, 6-[8-chloro-2-methylimidazo[1,2-a]pyridin-6-yl]-2-(piperidin-4-yl)-3,4-dihydroisoquinolin-1-one] belongs 1 to 10 µM; to `Cc1cn2cc(-c3ccc4c(c3)CCN(C3CCNCC3)C4=O)cc(C)c2n1` [Compound 217, 6-[2,8-dimethylimidazo[1,2-a]pyridin-6-yl]-2-(piperidin-4-yl)-3,4-dihydroisoquinolin-1-one], greater than 10 µM; to `Cc1cn2cc(-c3ccc4c(c3)CCN(C3CCNCC3)C4=O)c(C)cc2n1` [Compound 218, 6-[2,7-dimethylimidazo[1,2-a]pyridin-6-yl]-2-(piperidin-4-yl)-3,4-dihydroisoquinolin-1-one], 1 to 10 µM. To `Cc1cc(-c2ccc3c(c2)CCN(C2CCNCC2)C3=O)cc2cn(C)nc12` [Compound 219, 6-(2,7-dimethylindazol-5-yl)-2-(piperidin-4-yl)-3,4-dihydroisoquinolin-1-one] belongs greater than 10 µM; to `O=C1c2ccc(-c3cn[nH]c3)cc2CCN1C1CCNCC1` [Compound 220, 2-(piperidin-4-yl)-6-(1H-pyrazol-4-yl)-3,4-dihydroisoquinolin-1-one], greater than 10 µM. To `Cc1cn2cc(-c3ccc4c(c3)CCN(C3CCNCC3)C4=O)nc2c(C)n1` [Compound 221, 6-[6,8-dimethylimidazo[1,2-a]pyrazin-2-yl]-2-(piperidin-4-yl)-3,4-dihydroisoquinolin-1-one] belongs greater than 10 µM; to `Cc1cn2nc(-c3ccc4c(c3)CCN(C3CCNCC3)C4=O)nc2c(C)n1` [Compound 222, 6-[6,8-dimethyl-[1,2,4]triazolo[1,5-a]pyrazin-2-yl]-2-(piperidin-4-yl)-3,4-dihydroisoquinolin-1-one], 1 to 10 µM. With `Cc1cn2nc(-c3ccc4c(c3)CCN(C3CCNCC3)C4=O)cc2c(C)n1` [Compound 223, 6-[4,6-dimethylpyrazolo[1,5-a]pyrazin-2-yl]-2-(piperidin-4-yl)-3,4-dihydroisoquinolin-1-one], the IC50 is greater than 10 µM. The figure for `Cc1cn2cc(-c3ccc4c(c3)CCN(C3CCNCC3)C4=O)ncc2n1` [Compound 224] is greater than 10 µM. To `Cn1cc2cc(-c3ccc4c(c3)CCN(C3CCNCC3)C4=O)cc(F)c2n1` [Compound 225] belongs greater than 10 µM.

The IC50 is the concentration needed to halve the response being measured.
